Reference: patent US20250325684A1, “POTENT ANTI-CANCER CYCLOTIDES” (University of Southern California, priority 2022, published 2025)
Bridge positions count the residues as written; N and C are the ends. Peptide text beside a SMILES is read from it.

What was measured:
PC-3 = assay: MTT cell viability, PC-3 cells; assay type: cell-based; conditions: PC-3 prostate carcinoma, p53 Mutant, read-out: Cell viability, Human Prostate Cancer Cells
Procedure: (§1) Cell viability assay in several human cancer cell lines (See Tables 1 to 10). Cell lines were cultured in RPMI 1640 (or recommended medium when indicated) medium supplemented with 10% fetal calf serum, penicillin (50 IU/mL) and streptomycin ([…]) at 37° C. in 5% CO2. Cell viability studies was carried using the MTT (3-(4,5-dimethylthiazol-2-yl)-2,5-diphenyltetrazolium bromide) assay as previously described (31). Briefly, ≈2×10^3 CRC cells were be seeded in 96-well microtiter plates in 100 μL RPMI 1640 in the presence of 10% calf serum. After 24 h incubation the cells were washed with PBS and treated with 30 μL/well of PBS or RPMI 1640 (or recommended) media containing cyclotides MCo-52, MCoTI-I (used as negative control), nutlin-3a (used as positive control) or MI-77301 (used as positive control for p53-mutated or p53-null cells) at the indicated doses for 1 h at 37° C. in 5% CO2. After 1 h, 210 μL/well of full complemented media was added, the cells were grown for 48 h and then treated with 20 μL of a solution of MTT (5 mg/mL) for 2 h. The medium was discarded and DMSO ([…]) was added to each well and incubated with gentle shaking for 20 min at room temperature. The absorbance at 595 nm of the solution is analyzed using a Tecan Genios Multifunctional Microplate Reader (Tecan System Inc) and the background at 670 nm subtracted. RNA-Seq analysis was performed using state-of-the-art bioinformatics tools. Briefly, raw RNA-Seq reads were mapped to human genome (hg38) using STAR aligner (v2.7.3a). Gencode Release 36 reference was used for annotation. Transcript and gene expression levels were quantified using the IsoEM (37) with default parameters. Counts per million (CPM) method is used for normalization. Differential expression was done using DESeq2 with default parameters. Genes involved in different biological pathways (human) were searched from Geneontology (http://geneontology.org/). Bioinformatics results can be validated by using Partek Flow (v10.0.21.0912), a bioinformatics pipeline developed by Zymo Research (https://www.zymoresearch.com/).
(§2) Tables 1 through 10 show in vitro activity of cyclotide MCo-52-2-cTAT against different human cancer cell lines, some with null-, mutated, or wildtype p53 phenotypes. Cell viability was evaluated using the MTT assay as described above.

LNCaP = assay: MTT cell viability, LNCaP cells; assay type: cell-based; conditions: LNCaP prostate carcinoma, p53 WT, read-out: Cell viability, Human Prostate Cancer Cells
Procedure: as §1, §2

DU145 = assay: MTT cell viability, DU145 cells; assay type: cell-based; conditions: DU145 prostate carcinoma, p53 Mutant, read-out: Cell viability, Human Prostate Cancer Cells
Procedure: as §1, §2

MIA PaCa-2 = assay: MTT cell viability, MIA PaCa-2 cells; assay type: cell-based, human; conditions: MIA PaCa-2 pancreatic ductal adenocarcinoma, p53 Mutant
Procedure: as §1, with “After 24 h incubation the cells were washed with PBS and treated with 30 μL/well of PBS or RPMI 1640 (or recommended) media containing cyclotides MCo-52, MCoTI-I (used as negative control), nutlin-3a (used as positive control) or MI-77301 (used as positive control for p53-mutated or p53-null cells) at the indicated doses for 1 h at 37° C. in 5% CO2.” left out
(§3) Cell viability was evaluated using the MTT assay as described above.

SKOV 3 = assay: MTT cell viability, SKOV 3 ovarian cells; assay type: cell-based, human; conditions: p53 Mutant
Procedure: as §1, §2

SW1990 = assay: MTT cell viability, SW1990 cells; assay type: cell-based, human; conditions: SW1990 pancreatic adenocarcinoma, p53 Mutant (Deletion)
Procedure: as §1, with “After 24 h incubation the cells were washed with PBS and treated with 30 μL/well of PBS or RPMI 1640 (or recommended) media containing cyclotides MCo-52, MCoTI-I (used as negative control), nutlin-3a (used as positive control) or MI-77301 (used as positive control for p53-mutated or p53-null cells) at the indicated doses for 1 h at 37° C. in 5% CO2.” left out
as §3

HPAF-II = assay: MTT cell viability, HPAF-II cells; assay type: cell-based, human; conditions: HPAF-II pancreatic ductal adenocarcinoma, p53 Mutant
Procedure: as §1, with “After 24 h incubation the cells were washed with PBS and treated with 30 μL/well of PBS or RPMI 1640 (or recommended) media containing cyclotides MCo-52, MCoTI-I (used as negative control), nutlin-3a (used as positive control) or MI-77301 (used as positive control for p53-mutated or p53-null cells) at the indicated doses for 1 h at 37° C. in 5% CO2.” left out
as §3

NIHOVCAR3 = assay: MTT cell viability, NIHOVCAR3 ovarian cells; assay type: cell-based, human; conditions: p53 Mutant
Procedure: as §1, §2

PANC-1 = assay: MTT cell viability, PANC-1 cells; assay type: cell-based, human; conditions: PANC-1 pancreatic ductal adenocarcinoma, p53 Mutant
Procedure: as §1, with “After 24 h incubation the cells were washed with PBS and treated with 30 μL/well of PBS or RPMI 1640 (or recommended) media containing cyclotides MCo-52, MCoTI-I (used as negative control), nutlin-3a (used as positive control) or MI-77301 (used as positive control for p53-mutated or p53-null cells) at the indicated doses for 1 h at 37° C. in 5% CO2.” left out
as §3

AsPC-1 = assay: MTT cell viability, AsPC-1 cells; assay type: cell-based, human; conditions: AsPC-1 pancreatic ductal adenocarcinoma, p53 Mutant
Procedure: as §1, with “After 24 h incubation the cells were washed with PBS and treated with 30 μL/well of PBS or RPMI 1640 (or recommended) media containing cyclotides MCo-52, MCoTI-I (used as negative control), nutlin-3a (used as positive control) or MI-77301 (used as positive control for p53-mutated or p53-null cells) at the indicated doses for 1 h at 37° C. in 5% CO2.” left out
as §3

SW626 = assay: MTT cell viability, SW626 cells; assay type: cell-based, human; conditions: SW626 ovarian cells, p53 Mutant; MTT (Table 7); read-out: Cell Viability Assay
Procedure: as §1, with “After 24 h incubation the cells were washed with PBS and treated with 30 μL/well of PBS or RPMI 1640 (or recommended) media containing cyclotides MCo-52, MCoTI-I (used as negative control), nutlin-3a (used as positive control) or MI-77301 (used as positive control for p53-mutated or p53-null cells) at the indicated doses for 1 h at 37° C. in 5% CO2.” left out
as §3

BxPC-3 = assay: MTT cell viability, BxPC-3 cells; assay type: cell-based, human; conditions: BxPC-3 pancreatic ductal adenocarcinoma, p53 Mutant
Procedure: as §1, with “After 24 h incubation the cells were washed with PBS and treated with 30 μL/well of PBS or RPMI 1640 (or recommended) media containing cyclotides MCo-52, MCoTI-I (used as negative control), nutlin-3a (used as positive control) or MI-77301 (used as positive control for p53-mutated or p53-null cells) at the indicated doses for 1 h at 37° C. in 5% CO2.” left out
as §3

Capan-1 = assay: MTT cell viability, Capan-1 cells; assay type: cell-based, human; conditions: Capan-1 pancreatic ductal adenocarcinoma, p53 Mutant
Procedure: as §1, with “After 24 h incubation the cells were washed with PBS and treated with 30 μL/well of PBS or RPMI 1640 (or recommended) media containing cyclotides MCo-52, MCoTI-I (used as negative control), nutlin-3a (used as positive control) or MI-77301 (used as positive control for p53-mutated or p53-null cells) at the indicated doses for 1 h at 37° C. in 5% CO2.” left out
as §3

A2780 = assay: MTT cell viability, A2780 ovarian cells; assay type: cell-based, human; conditions: p53 WT
Procedure: as §1, §2

ES-2 = assay: MTT cell viability, ES-2 ovarian cells; assay type: cell-based, human; conditions: p53 Mutant
Procedure: as §1, §2

CFPAC-1 = assay: MTT cell viability, CFPAC-1 cells; assay type: cell-based, human; conditions: CFPAC-1 pancreatic ductal adenocarcinoma, p53 Mutant
Procedure: as §1, with “After 24 h incubation the cells were washed with PBS and treated with 30 μL/well of PBS or RPMI 1640 (or recommended) media containing cyclotides MCo-52, MCoTI-I (used as negative control), nutlin-3a (used as positive control) or MI-77301 (used as positive control for p53-mutated or p53-null cells) at the indicated doses for 1 h at 37° C. in 5% CO2.” left out
as §3

Measured: EC50

CC[C@H](C)[C@@H]1NC(=O)[C@@H]2CSSC[C@@H]3NC(=O)[C@H](C(C)C)NC(=O)CNC(=O)CNC(=O)[C@H](CC(=O)O)NC(=O)[C@H](CO)NC(=O)CNC(=O)[C@H](CO)NC(=O)CNC(=O)[C@@H]4CSSC[C@H](NC(=O)[C@H](CC(=O)O)NC(=O)[C@H](CO)NC(=O)[C@H](CC(=O)O)NC(=O)[C@H](CCCNC(=N)N)NC(=O)[C@H](CCCNC(=N)N)NC(=O)[C@H](CSSC[C@H](NC1=O)C(=O)N[C@@H](CCCNC(=N)N)C(=O)N[C@@H](Cc1c[nH]cn1)C(=O)N[C@@H](CC(=O)O)C(=O)N[C@@H](CO)C(=O)N[C@@H](Cc1ccc(O)cc1)C(=O)N4)NC(=O)[C@H](CC(C)C)NC(=O)[C@H](CC(C)C)NC(=O)[C@H](Cc1ccc(O)cc1)NC(=O)[C@H](CC(C)C)NC(=O)[C@H](CC(N)=O)NC(=O)[C@@H]1CCCN1C3=O)C(=O)N1CCC[C@H]1C(=O)NCC(=O)N[C@@H](C)C(=O)N2 [Cyclotide 52-2] (cyclo(ACICRHDSYCGSGSDGGVCPNLYLLCRRDSDCPG); disulfide 2-19, 4-26, 10-32)
> 100 µM: all assays above
